According to patent US7285554B2, “Pyrazole derivative” (Astellas Pharma Inc., priority 1997, dated 2007):

Tested on: IL-2 production from Jurkat cells
Assay: cells
Settings: Homo sapiens, read-out: IL-2 production inhibition IC50 value

Cc1ncsc1C(=O)Nc1ccc(-n2nc(C(F)(F)F)cc2C(F)(F)F)cc1 [Example 1, 4-methyl-4′-[3,5-bis(trifluoromethyl)-1H-pyrazol-1-yl]thiazole-5-carboxyanilide]
IC50: ≤ 1000 nM

Cn1nc(C(F)(F)F)cc1-c1ccc(C(=O)Nc2ccccc2Cl)s1 [Example 5, 2′-chloro-5-(1-methyl-3-trifluoromethyl-1H-pyrazol-5-yl)thiophene-2-carboxyanilide]
IC50: ≤ 1000 nM
